# PubChem BioAssay (NCI)
# Where “and” joins values, the source holds several entries; their conditions need not be identical. Identical values can stand only once.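 96-well plates; 48 h exposure; 5 concentrations. Endpoints by linear interpolation between flanking doses. Not reached: highest tested concentration assigned. GI50 is the concentration that inhibits growth by half. TGI is the concentration that stops growth completely.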 Where a SMILES comes first, the peptide text is derived from it. [ ]: non-standard residue; d: D form. The star is where a group is joined. ξ: configuration not given here. ξPhe(4-NO2) = NC(Cc1ccc([N+](=O)[O-])cc1)C(=O)O; Boc = CC(C)(C)OC(=O)*
# Legend:
# Assay in all cases: NCI tumour cell line growth inhibition, 48 h
# NCI-H460 lung = tested on: NCI-H460 lung
# SK-OV-3 ovarian = tested on: SK-OV-3 ovarian
# HL-60(TB) leukemia = tested on: HL-60(TB) leukemia
# HS 578T breast = tested on: HS 578T breast
# SN12C renal = tested on: SN12C renal
# RXF 393 renal = tested on: RXF 393 renal
# EKVX NSCLC = tested on: EKVX NSCLC
# SNB-75 CNS = tested on: SNB-75 CNS
# HCT-116 colon = tested on: HCT-116 colon
# UO-31 renal = tested on: UO-31 renal
# MDA-MB-231 breast = tested on: MDA-MB-231 breast
Compound,TGI (NCI-H460 lung) [µM],TGI (SK-OV-3 ovarian) [µM],TGI (HL-60(TB) leukemia) [µM],TGI (HS 578T breast) [µM],TGI (SN12C renal) [µM],TGI (RXF 393 renal) [µM],TGI (EKVX NSCLC) [µM],TGI (SNB-75 CNS) [µM],TGI (HCT-116 colon) [µM],TGI (UO-31 renal) [µM],TGI (MDA-MB-231 breast) [µM],GI50 (HL-60(TB) leukemia),GI50 (HS 578T breast)
CCNC(=O)CNC(=O)C(Cc1ccc([N+](=O)[O-])cc1)NC(=O)OC(C)(C)C (stereo unspecified) (Boc-[ξPhe(4-NO2)]-Gly-NHEt),> 100,> 100,> 100,> 100,> 100,> 100,> 100,> 100,> 100,> 100,> 100,–,–
COC(=O)C1SC[C@H]2C(=O)N(c3ccccc3)C(=O)N12 (stereo partly specified),> 100,> 100,> 100,> 100,> 100,> 100,> 100,> 100,> 100,> 100,> 100,–,–
C#CCOC(=O)[C@@H](C)c1ccc2cc(OC)ccc2c1,> 100,> 100,35.8,> 100,> 100,> 100,> 100,> 100,> 100,> 100,> 100,–,–
O=c1oc2ccccc2n1CCCn1c(=O)oc2ccccc21,> 100,> 100,> 100,> 100,> 100,> 100,> 100,> 100,> 100,–,> 100,–,–
Cc1ccc(NC(=S)N=Nc2c(O)[nH]c3ccccc23)cc1,> 100,> 100,> 100,> 100,> 100,> 100,> 100,> 100,> 100,> 100,> 100,–,–
COc1ccc(C(=O)N(Cc2cccnc2)C(=S)N(Cc2cccnc2)C(=O)c2ccc(OC)cc2)cc1,> 100,> 100,> 100,> 100,> 100,> 100,> 100,42.9,> 100,–,> 100,–,–
COc1ccc(Br)c(C=Nc2cccc3cc(OC)c(OC)cc23)c1,> 100,> 100,7.97,57.1,> 46.4,> 100,> 100,> 100,34.2,97.5,> 46.4,–,–
ClCCc1ccccc1CC1=NCCc2ccccc21,62.7,> 100,> 100,> 100,> 100,61.8,> 100,96.8,> 100,38.3,96.2,–,–
C[C@H](CO)C1=CC(C#C[Si](C)(C)C)N(C(=O)Oc2ccccc2)c2ccccc21 (stereo partly specified),28.6,31.1,47.2,26.4,25.5,23,29.1,23,22.7,21.4,23.4,–,–
C=C(C1=CC(=O)C(C)(C)O1)[C@@H]1CC=C([C@@H]2CC[C@H]3[C@@]2(C)CC[C@H]2C(C)(C)C(=O)[C@H](OC(=O)CC(C)(O)CC(=O)O)C[C@]32C)[C@H](O)O1 (stereo partly specified),40.7,46.9,38.4,66.7,28,17,29.8,–,24,26.3,35.8,–,–
Nc1nc(Cl)c(C=O)c(NCC2(CO)CCC2)n1,> 100,69.5,22.3,67.9,> 100,50.1,46.9,67.7,40.6,58.6,81.5,–,–
Brc1ccc(C2CC3(c4ccccc4)ON=C(c4ccccc4)N3c3ccccc3S2)cc1 (stereo unspecified),> 100,> 100,> 100,> 100,> 100,> 100,> 100,> 100,> 100,> 100,> 100,–,–
CC(C)C1=CC23CCC4C(C)(C(=O)O)CCCC4(C)C2CC1C1C(=O)N(c2cccc(N4C(=O)C5C6CC7C8(C)CCCC(C)(C(=O)O)C8CCC7(C=C6C(C)C)C5C4=O)c2)C(=O)C13 (stereo unspecified),–,–,30.7,24.6,27.1,27,24.4,–,21.3,29.1,39.2,–,–
NS(=O)(=O)c1nnc(NC(=O)/C=C/C(=O)O)s1,> 100,> 100,> 100,> 100,> 100,> 100,> 100,–,> 100,> 100,> 100,–,–
CN(C)c1c(C2CC(O)C(CO)O2)c(=O)c1=O (stereo unspecified),> 100,> 100,> 100,> 100,> 100,–,> 100,> 100,> 100,> 100,> 100,–,–
N#CC1=C(S)N(C2OC(CO)C(O)C(O)C2O)C(c2ccccc2)=CC1c1cccs1 (stereo unspecified),32.9,–,> 100,67,32.4,40,–,51.8,75.7,> 100,63.5,–,–
Nc1nc(Cc2ccccc2)nc(Cc2ccccc2)c1-c1ccccc1,> 100,–,60.5,> 100,> 100,> 100,> 100,–,46,> 100,49.1,–,–
CCOC1=NC(C(F)(F)F)(C(F)(F)F)N=C(N2CCCCC2)O1,> 100,–,> 100,> 100,> 100,> 100,> 100,> 100,> 100,> 100,> 100,–,–
Cc1ccc2c(=O)c(C(=O)NNC(=S)NC3CCCCC3)c[nH]c2n1,> 100,–,> 100,> 100,> 100,> 100,> 100,–,> 100,> 100,> 100,–,–
CCN(CCCl)c1cc(CN(C)C)cc(NC(=O)c2ccc(C(=O)Nc3ccccc3)cc2)c1,1.27,11.1,0.695,0.583,5.21,0.307,–,4.13,11.5,4.4,7.55,–,–
COc1ccc(S(=O)(=O)Nc2ccc(-c3csc(N4C(=O)/C(=C/c5cccs5)N=C4c4ccccc4)n3)cc2)cc1Cl,> 100,> 100,87.4,93.3,> 100,> 100,–,> 100,> 100,86.3,> 100,–,–
COC1C(OC(C)=O)CC(=O)OC(C)C/C=C/C=C\C(O)C(C)CC(CC=O)C1OC1OC(C)C(OC2CC(C)(O)C(OC(=O)CC(C)C)C(C)O2)C(N(C)C)C1O (stereo unspecified),> 100,> 100,> 100,> 100,> 100,> 100,–,> 100,> 100,> 100,> 100,36.2 µM and > 100 µM,> 100 µM and 42 µM
COc1cc(OC2OC(CO)C(O)C(O)C2O)c2c(c1)O[C@@H]1[C@H](O)Oc3cc(OC)c(OC)cc3[C@]1(O)C2=O (stereo partly specified),> 25,> 25,> 25,> 25,> 25,–,> 25,> 25,> 25,> 25,> 25,–,–
CCOc1cc(/C=C2\N=C(c3ccccc3)N(c3nc4ccccc4s3)C2=O)ccc1O,> 100,> 100,73.9,85.6,–,> 100,> 100,> 100,> 100,> 100,> 100,–,–
COc1ccc2[nH]c3c(C)c4ncccc4c(C)c3c2c1,5.46,> 10,5.85,> 10,> 10,9.39,> 10,> 10,> 10,–,> 10,–,–
COC(=O)/C=C/c1cnc2c(c1)oc(=O)n2C,> 100,> 100,> 100,> 100,> 100,–,> 100,> 100,> 100,> 100,> 100,–,–
CC1(C)CC[C@]2(C(=O)O)CC[C@]3(C)C(=CC[C@@H]4[C@@]5(C)CC[C@H](OC6OC(CO)C(O)C(O)C6O)C(C)(C)[C@@H]5CC[C@]43C)[C@@H]2C1 (stereo partly specified),14.3,3.16,3.83,4.74,3.07,3.77,–,5.33,3.13,3.1,3.07,–,–
CN(/N=C/c1ccccc1C(=O)O)C1=NCCCCN1,> 100,> 100,> 100,> 100,> 100,–,> 100,> 100,> 100,> 100,> 100,–,–
COc1ccc(NC(=S)Nc2c(C)n(C)n(-c3ccccc3)c2=O)cc1,> 100,> 100,> 100,> 100,–,> 100,> 100,> 100,> 100,> 100,> 100,–,–
